Measurements as given in patent publication US9650404B2 (RESEARCH FOUNDATION OF THE CITY UNIVERSITY OF NEW YORK, priority 2010, dated 2017).
≈ marks a conversion by molar mass, not a printed value. Entries after “also recorded” stand apart in the source; their conditions may differ.

Experiments:
[1] = system: cultured hippocampal slices (normal brain tissue); test: MTT cell viability assay on cultured hippocampal slices; assay type: cell-based, mouse; conditions: for cell viability (MTT) versus control: overnight, hippocampal slices
Experimental: To assess the viability of the normal brain tissue in presence of the sweet curry MTT assay on cultured hippocampal slices were performed.
Mouse pups of specific ages were anesthetized with ketamine (100 mg/kg) and decapitated. Under sterile conditions, the brains were isolated and then cut at 60° from the longitudinal fissure at the top using a hippocampus-dissecting tool to expose the hippocampus. The hemispheres containing the hippocampi were then placed in modified Gey's balanced salt solution (mGBSS) at 4° C. for 30-40 minutes while bubbling a mixture of 95% O2 and 5% CO2. Individual hippocampi were isolated using dissection tool and then […] thick transverse slices were prepared using a tissue chopper (Stoelting, Wood Dale, Ill., USA). The slices were placed in ice cold mGBSS and inspected using a dissection microscope for the presence of uninterrupted bright transparent neuronal layers characteristic of the hippocampal structure. Only such slices were placed on Millicell CM filters (Millipore, Bedford, Mass., USA). The filters were placed in a six well dish with 1 ml of medium in each well. The slices were kept on high K^+ culture medium (25% horse serum, 50% Basal Essential Media-Eagles, 25% Eagle's Balanced Salt Solution (EBSS), 25 mM Na-HEPES, 1 mM Glutamine, 28 mM Glucose, pH 7.2) for the first two days. After incubation at 32° C. in a 5% CO2 atmosphere, the culture medium was changed to physiological K^+ slice culture medium (20% dialyzed fetal bovine serum, 5% Basal Essential Media-Eagles, and EBSS modified to adjust the K^+ concentration to 2.66 mM). After 20% dialyzed serum treatment for two days and the slices were placed in 5% serum medium (same medium as above but with 5% serum) for two days.
Hippocampal slices from adult mice brain were cultured as described by Mehta et al (2007). After six days in vitro the slices were treated with different concentrations of the sweet curry (i.e., 8 nM, 8 μM and 80 μM respectively) overnight along with the slices treated with the carrier as control.
After the treatment with sweet curry, slices from each treatment group were placed in 400 μl PBS in one well of 48-well plate and then treated with 200 μl of MTT (5 mg/ml) per well with gentle mixing at 37° C. for 2 hours. The slices were triturated to homogenize with the help of a micropipette. After that 800 μl of lysis buffer (20% SDS, 50% dimethylformamide) was added to each well and the plate was sealed and incubated overnight at 37° C. with gentle mixing. Now 100 μl mix from each well was taken in respective wells of a 96 well plate in triplicates and absorbance was measured at 570 nm using a plate reader. Results obtained were normalized to the total protein content and then expressed as percent carrier-treated samples.

[2] = Antioxidant potentiality assay by linoleic acid peroxidation (thiocyanide method); conditions: in water, aqueous medium; FIG. 1
Experimental: 0.28 gm of linoleic acid, 0.28 gm of tween 40 as emulsifier and 50 ml of phosphate buffer (0.2 M, pH 7) were used to prepare a linoleic acid emulsion. The curcuminoids (5 mg per ml) were dissolved in water and 0.5 ml of each one of them was pipetted out into different test-tubes. Then 2.5 ml of linoleic acid emulsion was added to each one of them followed by the addition of 2.5 ml of phosphate buffer. All the tubes were incubated at 37° C. for 7 days. The mixture prepared as above without test sample was the control one. At the regular interval of 24 hours, 0.1 ml of the aliquots were drawn out of the incubation mixture and mixed with 5 ml of 75% ethanol, 0.1 ml of 30% ammonium thiocyanate and 0.1 ml of 20 mM ferrous chloride in 3.5% HCl. The tubes were allowed to stand in room temperature for 3 minutes. Spectrophotometric analysis was done at 500 nm. All the tests were carried out in duplicate and averaged. Anoxidant activity=[1-increase in absorbance of the sample/increase in absorbance of control]*100.

[3] = biological target: T1, Amyloid βeta (Aβeta) fragment 25-35 (Homo sapiens, UniProt P05067); test: Dissolution of Amyloid beta fragments (transmission electron microscopy); assay type: biochemical; conditions: for concentration at which the compound works in dissolving amyloid aggregates: Aβeta 25-35 50 μg/ml, 37° C., 6 days
T1 construct: Amyloid βeta (Aβeta) fragment 25-35 (Sigma A-4559); purchased Sigma A-4559
Experimental: Amyloid βeta (Aβeta) fragment 25-35 (Sigma A-4559) was diluted in water to a stock of 1 mg/ml. […] Samples were incubated at 37° C. for 6 days. Aggregation of the protein fragment was determined using transmission electron microscopy. 200 mesh carbon coated grids (Electron Microscopy Sciences) were used and prepared for negative staining by adding 5 μl of incubation mixture to the grid surface for one minute, followed by drying the grid with filter paper and contrasting with 5 μl of freshly filtered 2% phosphotungstic acid (pH=7.2) for one minute. Once grids were dry, examination was done using the FEI Tecnai Spirit at the College of Staten Island's Advanced Imaging Facility. Micrographs were captured using an AMT CCD camera.

[4] = Solubility study via UV-Vis spectroscopy (direct solubility in water)
Experimental: Both sample were centrifuged at 13,000 RPM for 2 min. 100 μL of the sugar conjugate solution was added to 900 μL of deionized water and thoroughly mixed. […] It should be noted that the solubility study outlined above measures the direct solubility of the compounds in water and closely models “real life” conditions, in contrast to other experiments in which the compounds are first dissolved in other solvents followed by dilution in water.

| concentration at which the compound works in dissolving amyloid aggregates ([3]; electron micrographs) | effectiveness in dissolving amyloid aggregates relative to curcumin ([3]; ratio of working concentrations) [times] | solubility ([4]; deionized water, water, thermodynamic from solid) [mM] | SMILES | effect on normal brain tissue (viability), conclusion ([1]; 8 nM to 80 μM) | cell viability (MTT) versus control ([1]; 8 nM) | cell viability (MTT) versus control ([1]; 8 μM) | cell viability (MTT) versus control ([1]; 80 μM) | anti-oxidant potential (AOP), comparison in words [2] | effectiveness in dissolving amyloid aggregates ([3]; electron micrographs) | solubility in water relative to curcumin and derivatives ([4]; water (plasma model), listed as Sweet curry 1d) |
| --- | --- | --- | --- | --- | --- | --- | --- | --- | --- | --- |
| 8 nmol | 1000 | 6 (≈ 4460 µg/mL) | COc1cc(/C=C/C(=O)CC(=O)/C=C/c2ccc(OCc3cn(CCOCCOCCOC4OC(CO)C(O)C(O)C4O)nn3)c(OC)c2)ccc1O (centres unmarked) [Compound 1d, curcumin-“Clicked”-mono-galactose] | no harmful effect on the normal brain tissue | near the control samples | near the control samples | a little higher than the control samples | much better antioxidant than Curcumin 1 as well as other curcumin derivatives (1a,1b) | significantly more effective than curcumin in dissolving amyloid aggregates | far superior solubility compared to curcumin in water; also recorded: superiorly soluble in water compared to Curcumin and derivatives 1a and 1b |
| 8 µM |  |  | COc1cc(/C=C/C(=O)CC(=O)/C=C/c2ccc(O)c(OC)c2)ccc1O [curcumin, (1E,6E)-1,7-bis(4-hydroxy-3-methoxyphenyl)hepta-1,6-diene 3,5-dione, reference compound] |  |  |  |  |  |  |  |
